Literature values in patent US20220288212A1, “FULLERENE P[…] AND METHODS” (Sinapu LLC, priority 2021, published 2022).

How the values were obtained:
[1] = minimum of from 2.5 to 3 grams of EGCG ingested per day
[2] = room temperature

**Q.** With `O=C(O[C@@H]1Cc2c(O)cc(O)cc2O[C@@H]1c1cc(O)c(O)c(O)c1)c1cc(O)c(O)c(O)c1` [EGCG, epigallocatechin gallate] as the compound, how does the blood serum concentration [1] read?
**A.** 100 to 1000 nM

**Q.** What about the “maximum solubility in water” value [2] of the same compound?
**A.** 92 grams per liter
